# Test results reported in PubChem BioAssay AID1963964 (Molecular Pharmacology Branch, DTP, NCI, 2024).
# Test system: 997726-040-R-J2-PDC tumor spheroids, viability
# Assay: Anticancer human tumor 997726-040-R-J2-PDC patient-derived squamous cell lung carcinoma cell line growth inhibition [PI3K]
# Conditions: spheroids with HUVEC and MSC; for IC50: curve of first compound; for viability, T/C: stronger effect = lower value
# How it was run: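 Stroma-containing spheroids: tumor line, pooled-donor HUVEC, hMSC. Treatments: targeted agents with PI3K inhibitors. Dosing: clinically relevant, half-log spacing, 10 microM ceiling without known Cmax. Read-out: cell viability.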
# [1] = second compound 0.0316 µM, first compound 0.0316 µM
# [2] = second compound 0.0316 µM, first compound 0.1 µM
# [3] = second compound 0.0316 µM, first compound 0.316 µM
# [4] = second compound 0.0316 µM, first compound 1 µM
# [5] = second compound 0.1 µM, first compound 0.0316 µM
# [6] = second compound 0.1 µM, first compound 0.1 µM
# [7] = second compound 0.1 µM, first compound 0.316 µM
# [8] = second compound 0.1 µM, first compound 1 µM
# [9] = second compound 0.316 µM, first compound 0.0316 µM
# [10] = second compound 0.316 µM, first compound 0.1 µM
# [11] = second compound 0.316 µM, first compound 0.316 µM
# [12] = second compound 0.316 µM, first compound 1 µM
# [13] = second compound 1 µM, first compound 0.0316 µM
# [14] = second compound 1 µM, first compound 0.1 µM
# [15] = second compound 1 µM, first compound 0.316 µM
# [16] = second compound 1 µM, first compound 1 µM
# [17] = second compound 3.16 µM, first compound 0.0316 µM
# [18] = second compound 3.16 µM, first compound 0.1 µM
# [19] = second compound 3.16 µM, first compound 0.316 µM
# [20] = second compound 3.16 µM, first compound 1 µM
# [21] = second compound 10 µM, first compound 0.0316 µM
# [22] = second compound 10 µM, first compound 0.1 µM
# [23] = second compound 10 µM, first compound 0.316 µM
# [24] = second compound 10 µM, first compound 1 µM
# 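Also: spheroids exposed to compounds for seven days before readout.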
compound,measurement,setting,value
CC(C)NCC(C(=O)N1CCN(c2ncnc3c2C(C)CC3O)CC1)c1ccc(Cl)cc1 (centres undefined) + Cc1nc(NC(=O)N2CCCC2C(N)=O)sc1-c1ccnc(C(C)(C)C(F)(F)F)c1,IC50,second compound 0.0316 µM,269 nM
same,IC50,second compound 0.1 µM,269 nM
same,IC50,second compound 0.316 µM,120 nM
same,IC50,second compound 1 µM,< 31.6 nM
same,IC50,second compound 3.16 µM,< 31.6 nM
same,IC50,second compound 10 µM,< 31.6 nM
same,"viability, T/C",[1],73.4%
same,"viability, T/C",[2],65.9%
same,"viability, T/C",[3],47.7%
same,"viability, T/C",[4],23.8%
same,"viability, T/C","second compound 0.0316 µM, first compound 3.16 µM",12.7%
same,"viability, T/C","second compound 0.0316 µM, first compound 10 µM",8.8%
same,"viability, T/C",[5],71.6%
same,"viability, T/C",[6],66.8%
same,"viability, T/C",[7],46.6%
same,"viability, T/C",[8],25.9%
same,"viability, T/C","second compound 0.1 µM, first compound 3.16 µM",15.2%
same,"viability, T/C","second compound 0.1 µM, first compound 10 µM",10.6%
same,"viability, T/C",[9],55.9%
same,"viability, T/C",[10],52.5%
same,"viability, T/C",[11],39%
same,"viability, T/C",[12],22.4%
same,"viability, T/C","second compound 0.316 µM, first compound 3.16 µM",11.2%
same,"viability, T/C","second compound 0.316 µM, first compound 10 µM",9.52%
same,"viability, T/C",[13],49.5%
same,"viability, T/C",[14],37.2%
same,"viability, T/C",[15],34%
same,"viability, T/C",[16],21%
same,"viability, T/C","second compound 1 µM, first compound 3.16 µM",10.5%
same,"viability, T/C","second compound 1 µM, first compound 10 µM",6.76%
same,"viability, T/C",[17],33.2%
same,"viability, T/C",[18],27.5%
same,"viability, T/C",[19],25%
same,"viability, T/C",[20],16.5%
same,"viability, T/C","second compound 3.16 µM, first compound 3.16 µM",7.98%
same,"viability, T/C","second compound 3.16 µM, first compound 10 µM",4.28%
same,"viability, T/C",[21],15.8%
same,"viability, T/C",[22],10.9%
same,"viability, T/C",[23],10.7%
same,"viability, T/C",[24],5.86%
same,"viability, T/C","second compound 10 µM, first compound 3.16 µM",3.95%
same,"viability, T/C","second compound 10 µM, first compound 10 µM",3.36%
CCN1CCN(Cc2ccc(Nc3ncc(F)c(-c4cc(F)c5nc(C)n(C(C)C)c5c4)n3)nc2)CC1 + Cc1nc(NC(=O)N2CCCC2C(N)=O)sc1-c1ccnc(C(C)(C)C(F)(F)F)c1,IC50,second compound 0.0316 µM,> 1000 nM
same,IC50,second compound 0.1 µM,466 nM
same,IC50,second compound 0.316 µM,7.34 nM
same,IC50,second compound 1 µM,< 3.16 nM
same,IC50,second compound 3.16 µM,< 3.16 nM
same,IC50,second compound 10 µM,< 3.16 nM
same,"viability, T/C","second compound 0.0316 µM, first compound 0.00316 µM",82.8%
same,"viability, T/C","second compound 0.0316 µM, first compound 0.01 µM",79.5%
same,"viability, T/C",[1],61.5%
same,"viability, T/C",[2],69.5%
same,"viability, T/C",[3],58.3%
same,"viability, T/C",[4],59.8%
same,"viability, T/C","second compound 0.1 µM, first compound 0.00316 µM",76.7%
same,"viability, T/C","second compound 0.1 µM, first compound 0.01 µM",71.1%
same,"viability, T/C",[5],67.3%
same,"viability, T/C",[6],55.2%
same,"viability, T/C",[7],52.3%
same,"viability, T/C",[8],46.3%
same,"viability, T/C","second compound 0.316 µM, first compound 0.00316 µM",52.5%
same,"viability, T/C","second compound 0.316 µM, first compound 0.01 µM",51.8%
same,"viability, T/C",[9],45%
same,"viability, T/C",[10],39%
same,"viability, T/C",[11],37.1%
same,"viability, T/C",[12],41.1%
same,"viability, T/C","second compound 1 µM, first compound 0.00316 µM",40.8%
same,"viability, T/C","second compound 1 µM, first compound 0.01 µM",39.5%
same,"viability, T/C",[13],37%
same,"viability, T/C",[14],30.9%
same,"viability, T/C",[15],29%
same,"viability, T/C",[16],33.8%
same,"viability, T/C","second compound 3.16 µM, first compound 0.00316 µM",29.9%
same,"viability, T/C","second compound 3.16 µM, first compound 0.01 µM",27%
same,"viability, T/C",[17],26%
same,"viability, T/C",[18],22.9%
same,"viability, T/C",[19],23.4%
same,"viability, T/C",[20],19.5%
same,"viability, T/C","second compound 10 µM, first compound 0.00316 µM",16.9%
same,"viability, T/C","second compound 10 µM, first compound 0.01 µM",12.3%
same,"viability, T/C",[21],10.3%
same,"viability, T/C",[22],10.9%
same,"viability, T/C",[23],11.9%
same,"viability, T/C",[24],11.2%
